The subject of this test is ARPE-19 cells stably expressing XBP1 (a.a. 1-376). Kind of test: Cellular XBP1 splicing assay (NanoLuc luciferase, thapsigargin). Format: cell-based. Particulars: thapsigargin 150 nM. As to the method:
Cellular XBP1 Splicing Assay
ARPE-19 cells stably expressing XBP1 (a.a. 1-376) with nano-luciferase gene sequence linked so it is in frame when XBP1 is spliced, were cultured in F12 media, 10% FBS, 0.044% sodium bicarbonate, 150 μg/ml hygromycin B and seeded for assays at 5,000 cells in 384 well plates in culture media without hygromycin B and incubated at 37° C./5% CO2. After overnight incubation test compounds were added to the cell plate in a 10-point ½ log dilution series in duplicate (final DMSO concentration 0.117%). After further incubation of 30 minutes thapsigargin was added (final concentration 150 nM) and then another 4 hour incubation. A NanoLuc luciferase assay (Promega) was used according to the manufacturer's instructions to detect the luciferase and luminescence measured on a luminometer (EnVision, PerkinElmer). IC50 values calculated by fitting a sigmoidal curve to percent inhibition of control of compound concentration.

In patent US20220153734A1, “Pyrazolopyridine Compounds For IRE1 Inhibition” (Optikira, LLC, priority 2019, published 2022) one finds IC50 data, which are given here for nine compounds.

SMILES strings stand for the structures.

Compound `COCCN[C@H]1CC[C@H](c2cnc(N)c3c(-c4cc(F)c(NS(=O)(=O)c5cc(Cl)ccc5Cl)cc4F)nn(C(C)C)c32)CC1` [Compound A61, N-(4-(4-amino-1-isopropyl-7-((1r,4r)-4-((2-methoxyethyl)amino)cyclohexyl)-1H-pyrazolo[4,3-c]pyridin-3-yl)-2,5-difluorophenyl)-2,5-dichlorobenzenesulfonamide] gave an IC50 (Homo sapiens, ARPE-19, 4 h) of 5 nM.
On to `CCn1nc(-c2ccc(NS(=O)(=O)c3cc(Cl)ccc3F)c(F)c2)c2c(N)ncc(C3=CCC(NC4COC4)CC3)c21` (single isomer, unassigned) [Compound B39, N-(4-(4-amino-1-ethyl-7-(4-(oxetan-3-ylamino)cyclohex-1-en-1-yl)-1H-pyrazolo[4,3-c]pyridin-3-yl)-2-fluorophenyl)-5-chloro-2-fluorobenzenesulfonamide], for which 220 nM corresponded to half-maximal inhibition (4 hour) (IC50). In other words, the sub-micromolar range.
For `Nc1ncc(C2=CCC(NC3COC3)CC2)c2c1c(-c1ccc(NS(=O)(=O)Cc3ccccc3F)c(F)c1)nn2C1CC1` (single isomer, unassigned) [Compound B20, N-(4-(4-amino-1-cyclopropyl-7-(4-(oxetan-3-ylamino)cyclohex-1-en-1-yl)-1H-pyrazolo[4,3-c]pyridin-3-yl)-2-fluorophenyl)-1-(2-fluorophenyl)methanesulfonamide], where the note is “4 hour”, the midpoint of inhibition, the IC50, lay at 38 nM.
`CCn1nc(-c2ccc(NS(=O)(=O)Cc3ccccc3Cl)cc2)c2c(N)ncc(C3=CCC(NC4COC4)CC3)c21` (single isomer, unassigned) [Compound B25, N-(4-(4-amino-1-ethyl-7-(4-(oxetan-3-ylamino)cyclohex-1-en-1-yl)-1H-pyrazolo[4,3-c]pyridin-3-yl)phenyl)-1-(2-chlorophenyl)methanesulfonamide] displayed an IC50 (4 hour) of 170 nM. This IC50 is about 4.5-fold higher than that of the compound before.
Regarding `COCCN[C@H]1CC[C@H](c2cnc(N)c3c(-c4cc(F)c(NS(=O)(=O)c5cccc(F)c5)cc4F)nn(C(C)C)c32)CC1` [Compound A33, N-(4-(4-amino-1-isopropyl-7-((1r,4r)-4-((2-methoxyethyl)amino)cyclohexyl)-1H-pyrazolo[4,3-c]pyridin-3-yl)-2,5-difluorophenyl)-3-fluorobenzenesulfonamide], the IC50 (Homo sapiens, ARPE-19, 4 h) stood at 49 nM.
The compound `CCCOc1ccc(F)c(S(=O)(=O)Nc2cc(F)c(-c3nn(C(C)C)c4c3c(N)ncc4[C@H]3CC[C@H](NCCOC)CC3)cc2F)c1` [Compound A60, N-(4-(4-amino-1-isopropyl-7-((1r,4r)-4-((2-methoxyethyl)amino)cyclohexyl)-1H-pyrazolo[4,3-c]pyridin-3-yl)-2,5-difluorophenyl)-2-fluoro-5-propoxybenzenesulfonamide] came in with a 50% inhibitory concentration (IC50) (Homo sapiens, ARPE-19, 4 h) of 16 nM.
In turn, `Nc1ncc(C2=CCC(NC3COC3)CC2)c2c1c(-c1ccc(NS(=O)(=O)Cc3ccccc3F)c(F)c1)nn2C1CC1` (single isomer, unassigned) [Compound B21, N-(4-(4-amino-1-cyclopropyl-7-(4-(oxetan-3-ylamino)cyclohex-1-en-1-yl)-1H-pyrazolo[4,3-c]pyridin-3-yl)-2-fluorophenyl)-1-(2-fluorophenyl)methanesulfonamide] yielded a half-inhibitory concentration (IC50) (4 hour) of 11 nM.
The compound `CC(C)n1nc(-c2ccc(NS(=O)(=O)c3ccccc3Cl)c(F)c2)c2c(N)ncc(C3=CCC(NC4COC4)CC3)c21` (single isomer, unassigned) [Compound B57, N-(4-(4-amino-1-isopropyl-7-(4-(oxetan-3-ylamino)cyclohex-1-en-1-yl)-1H-pyrazolo[4,3-c]pyridin-3-yl)-2-fluorophenyl)-2-chlorobenzenesulfonamide] had an IC50 (4 hour) of 20 nM.
Turning to `COCCN[C@H]1CC[C@H](c2cnc(N)c3c(-c4cc(F)c(NS(=O)(=O)c5cc(OC(F)(F)F)ccc5F)cc4F)nn(C(C)C)c32)CC1` [Compound A59, N-(4-(4-amino-1-isopropyl-7-((1r,4r)-4-((2-methoxyethyl)amino)cyclohexyl)-1H-pyrazolo[4,3-c]pyridin-3-yl)-2,5-difluorophenyl)-2-fluoro-5-(trifluoromethoxy)benzenesulfonamide], for the setting “Homo sapiens, ARPE-19, 4 h”, the concentration for half-maximal inhibition (IC50) was determined as 44 nM.
